Data reported in patent publication US11090319B2, “Therapeutic uses of pharmaceutical compositions comprising cyclic boronic acid ester derivatives” (Melinta Subsidiary Corp., priority 2010, dated 2021).
Like-named read-outs stand apart in the source and are kept apart here.

Key:
[1] = tested on: strains expressing class A ESBLs; assay type: cell-based
Protocol: Selected β-lactamase inhibitors were also tested for their ability to potentiate the monobactam tigemonam.

[2] = Single dose pharmacokinetics and oral bioavailability in rats, Table 15; assay type: in vivo, Sprague-Dawley (SD) rats
Protocol: An in vivo model can be used to evaluate the single dose pharmacokinetic properties and absolute oral bioavailability of a test compound. As described more specifically below, a test compound is administered to Sprague-Dawley (SD) rats either intravenously or orally in a crossover study design and the resulting pharmacokinetic properties and oral bioavailability are measured. […] Plasma samples (0.3 ml) were collected from jugular vein cannula at 0.17, 0.33, 0.47, 0.58, 0.68, 0.75, 1, 2, 3, 4, and 6 hrs after the dosing. […] The samples were mixed and centrifuged for 30 min at 3000×g. 150 μL of supernatant was removed and added to 450 μL of water. HPLC-mass spectrometry: An Agilent 1100HPLC pump, HTC PAL autosampler and a Sciex […] mass spectrometer were used for separation and quantification. Compound 62 and its internal standard were detected using +ESI. Compound 5 and its internal standard were detected using -ESI. LC/MS/MS: 1) Column: Chromolith FastGradient RP-18e, 50×2 mm; 2) Mobile phase A: Aqueous Water with 0.1% TFA, Orgainic phase B: Acetonitrile with 0.1% TFA; Flow Rate: 600 μL/min; Injection volume: 10 μL; […] Plasma concentrations were modeled using WinNonlin® (Pharsight Corp, Mountain View, Calif.). In this experiment, three male Sprague Dawley rats were given Compound 5 by intravenous or oral route. At designated time points, bloods were collected and analyzed. […] Plasma samples were collected at designated time points and analyzed for the presence of Compound 5. […] Male rats (non-fasted) were orally administered 50 mg/kg of the prodrug Compound 62.

[3] = biological target: KPC-3, lysate of EC1007 (Klebsiella pneumoniae, UniProt Q9F663, H272Y); test: Inhibition of biapenem hydrolysis by bacterial lysate
KPC-3, lysate of EC1007, sequence (Q9F663 whole entry H272Y, looked up): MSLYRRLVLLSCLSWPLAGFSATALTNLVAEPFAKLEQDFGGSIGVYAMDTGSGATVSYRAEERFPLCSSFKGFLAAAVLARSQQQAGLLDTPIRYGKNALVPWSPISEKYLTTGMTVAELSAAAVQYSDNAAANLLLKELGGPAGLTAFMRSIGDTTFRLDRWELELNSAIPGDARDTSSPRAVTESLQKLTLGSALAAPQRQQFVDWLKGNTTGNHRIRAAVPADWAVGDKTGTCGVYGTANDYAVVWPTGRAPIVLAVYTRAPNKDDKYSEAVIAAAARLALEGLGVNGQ

O=C(O)C[C@@H]1CC[C@H](NC(=O)Cc2cccs2)B(O)O1 [Compound 5, 2-((3R,6S)-2-hydroxy-3-(2-(thiophen-2-yl)acetamido)-1,2-oxaborinan-6-yl)acetic acid]
MPC4 CTX-M-14 KP1005 [1]: Z (key: X: MPC@4 of less than 2 μg/mL; Y: MPC@4 of 2 μg/mL to 10 μg/mL; Z: MPC@4 of greater than 10 μg/mL) | MPC4 CTX-M-15 KP1009 [1]: Z (key: X: MPC@4 of less than 2 μg/mL; Y: MPC@4 of 2 μg/mL to 10 μg/mL; Z: MPC@4 of greater than 10 μg/mL) | MPC4 SHV-5 ec308 [1]: Z (key: X: MPC@4 of less than 2 μg/mL; Y: MPC@4 of 2 μg/mL to 10 μg/mL; Z: MPC@4 of greater than 10 μg/mL) | MPC4 SHV-12 KP1010 [1]: Z (key: X: MPC@4 of less than 2 μg/mL; Y: MPC@4 of 2 μg/mL to 10 μg/mL; Z: MPC@4 of greater than 10 μg/mL) | MPC4 SHV-18 KP1012 [1]: Z (key: X: MPC@4 of less than 2 μg/mL; Y: MPC@4 of 2 μg/mL to 10 μg/mL; Z: MPC@4 of greater than 10 μg/mL) | MPC4 TEM-10 EC1009 [1]: Z (key: X: MPC@4 of less than 2 μg/mL; Y: MPC@4 of 2 μg/mL to 10 μg/mL; Z: MPC@4 of greater than 10 μg/mL) | MPC4 TEM-10 ec302 [1]: Z (key: X: MPC@4 of less than 2 μg/mL; Y: MPC@4 of 2 μg/mL to 10 μg/mL; Z: MPC@4 of greater than 10 μg/mL) | MPC4 TEM-26 ec304 [1]: Z (key: X: MPC@4 of less than 2 μg/mL; Y: MPC@4 of 2 μg/mL to 10 μg/mL; Z: MPC@4 of greater than 10 μg/mL) | half-life ([2]; Sprague-Dawley, rat, plasma, male SD rats, IV, 20 mg/kg): 1.56 h | half-life ([2]; Sprague-Dawley, rat, plasma, male SD rats, PO, 50 mg/kg): 1.55 h | AUC ([2]; Sprague-Dawley, rat, plasma, male SD rats, PO, 50 mg/kg, read-out: AUC): 0.81 µg·h/mL | CL/F ([2]; Sprague-Dawley, rat, plasma, male SD rats, PO, 50 mg/kg, read-out: CL/F (converted)): 60.4 L/h/kg | Cmax ([2]; Sprague-Dawley, rat, plasma, male SD rats, PO, 50 mg/kg, read-out: Cmax): 0.29 µg/mL | AUC ([2]; male SD rats, IV, 20 mg/kg): 12.15 µg·h/mL | CL/F ([2]; male SD rats, IV, 20 mg/kg): 1.65 L/h/kg | Cmax ([2]; male SD rats, IV, 20 mg/kg): 19.82 µg/mL | AUC ([2]; male SD rats, IV, 50 mg/kg): 28.19 µg·h/mL | CL/F ([2]; male SD rats, IV, 50 mg/kg): 1.77 L/h/kg | Cmax ([2]; male SD rats, IV, 50 mg/kg): 45.93 µg/mL | T1/2 ([2]; male SD rats, IV, 50 mg/kg): 4.53 h | oral absorption ([2]; rats, 50 mg/kg orally in saline): not orally absorbed | PK linearity ([2]; rats, intravenous 20 or 50 mg/kg): linear PK

Cl.N[C@H]1CCC(CC(=O)O)OB1O (stereo partly drawn) [Compound 7, 2-((3R)-3-amino-2-hydroxy-1,2-oxaborinan-6-yl)acetic acid hydrochloride]
IC50 [3]: > 4.77 µM
